Measurements: patent publication US10821100B2, “Triazolone compounds as mPGES-1 inhibitors” (Glenmark Pharmaceuticals S.A., priority 2012, dated 2020)

Target: T1, Recombinant human mPGES-1 (Homo sapiens, UniProt O14684)
T1 construct: made in house; host or cells: CHO cells (crude microsomal fractions)
T1 sequence (O14684 1-152): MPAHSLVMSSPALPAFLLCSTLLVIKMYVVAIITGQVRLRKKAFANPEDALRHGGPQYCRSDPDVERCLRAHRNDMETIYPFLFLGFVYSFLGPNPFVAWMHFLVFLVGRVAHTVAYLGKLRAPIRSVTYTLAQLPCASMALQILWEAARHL
Experiment: In-vitro screening of mPGES-1 inhibitors (inhibition of PGE2 formation from PGH2, HTRF detection)
Type: biochemical
Conditions: mPGES-1 enzyme; for inhibition at 1 µM: 1 μM test compound, read-out: Percentage inhibition at 1 μM; for inhibition at 1 µM / inhibition at 10 µM: crude microsomal fractions; for inhibition at 10 µM: 10 μM test compound, read-out: Percentage inhibition at 10 μM; for IC50: class symbols
Procedure, shortened: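 Crude CHO-expressed microsomes (40–60 μg/mL protein) preincubated 10 min with compound in 0.1 M potassium phosphate/2 mM EDTA containing 2.5 mM GSH, 0.5% DMSO final. PGH2 (15 μM) reacted 1 min, stopped with stannous chloride. PGE2 quantified by HTRF, IC50 from nonlinear regression of percent inhibition.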

inhibition at 1 µM [%]	inhibition at 10 µM [%]	IC50 [nM]	Structure (SMILES)
95.2	100	< 50	Cc1cc(-n2nc(-c3cc(CNC(=O)C(C)(C)C)ccc3Cl)[nH]c2=O)ccc1Cl [Example-154, N-(4-Chloro-3-(1-(4-chloro-3-methylphenyl)-4,5-dihydro-5-oxo-1H-1,2,4-triazol-3-yl)benzyl)pivalamide]
99.7	97.1	< 50	Cc1cc(-n2nc(-c3cc(CNC(=O)C(C)C)ccc3Cl)[nH]c2=O)ccc1Cl [Example-155, N-(4-Chloro-3-(1-(4-chloro-3-methylphenyl)-4,5-dihydro-5-oxo-1H-1,2,4-triazol-3-yl)benzyl)isobutyramide]
98.5	99.2	< 50	CC(C)(C)C(=O)NCc1ccc(Cl)c(-c2nn(-c3cc(F)cc(C(F)(F)F)c3)c(=O)[nH]2)c1 [Example-156, N-(4-Chloro-3-(1-(3-fluoro-5-(trifluoromethyl)phenyl)-4,5-dihydro-5-oxo-1H-1,2,4-triazol-3-yl)benzyl)pivalamide]
98.5	96.5	< 50	CC(C)(C)C(=O)NCc1ccc(Cl)c(-c2nn(-c3ccc(Cl)c(C(F)(F)F)c3)c(=O)[nH]2)c1 [Example-157, N-(4-Chloro-3-(1-(4-chloro-3-(trifluoromethyl)phenyl)-4,5-dihydro-5-oxo-1H-1,2,4-triazol-3-yl)benzyl)pivalamide]
99	99.7	< 50	Cc1ccc(-n2nc(-c3cc(CNC(=O)C(C)(C)C)ccc3Cl)[nH]c2=O)cc1C(F)(F)F [Example-158, N-(4-Chloro-3-(1-(3-(trifluoromethyl)-4-methylphenyl)-4,5-dihydro-5-oxo-1H-1,2,4-triazol-3-yl)benzyl)pivalamide]
75.4	96.8	> 100	Cc1cc(C(F)(F)F)ccc1-n1nc(-c2cc(CNC(=O)C(C)(C)C)ccc2Cl)[nH]c1=O [Example-159, N-(4-Chloro-3-(1-(4-(trifluoromethyl)-2-methylphenyl)-4,5-dihydro-5-oxo-1H-1,2,4-triazol-3-yl)benzyl)pivalamide]
96.6	97.3	< 50	CC(C)(C)C(=O)NCc1ccc(Cl)c(-c2nn(-c3ccc(C(F)(F)F)c(F)c3)c(=O)[nH]2)c1 [Example-160, N-(4-Chloro-3-(1-(3-fluoro-4-(trifluoromethyl)phenyl)-4,5-dihydro-5-oxo-1H-1,2,4-triazol-3-yl)benzyl)pivalamide]
98	99.4	< 50	CC(C)C(=O)NCc1ccc(Cl)c(-c2nn(-c3ccc(C(F)(F)F)c(F)c3)c(=O)[nH]2)c1 [Example-161, N-(4-Chloro-3-(1-(3-fluoro-4-(trifluoromethyl)phenyl)-4,5-dihydro-5-oxo-1H-1,2,4-triazol-3-yl)benzyl)isobutyramide]
99.3	99.3	< 50	CC(C)S(=O)(=O)NCc1ccc(Cl)c(-c2nn(-c3ccc(C(F)(F)F)cc3)c(=O)[nH]2)c1 [Example-162, N-(4-Chloro-3-{5-oxo-1-[4-(trifluoromethyl)phenyl]-4,5-dihydro-1H-1,2,4-triazol-3-yl}benzyl)propane-2-sulfonamide]
91.8	98.7	< 50	CC(C)(C)C(=O)NCc1ccc(Cl)c(-c2nn(-c3ccc(C(F)(F)F)cc3F)c(=O)[nH]2)c1 [Example-163, N-(4-Chloro-3-(1-(2-fluoro-4-(trifluoromethyl)phenyl)-4,5-dihydro-5-oxo-1H-1,2,4-triazol-3-yl)benzyl)pivalamide]
98.3	97.2	< 50	Cc1ccc(CNC(=O)C(C)C)c(C)c1-c1nn(-c2ccc(C#CC(C)(C)C)cc2)c(=O)[nH]1 [Example-164, N-(3-(4,5-Dihydro-1-(4-(3,3-dimethylbut-1-ynyl)phenyl)-5-oxo-1H-1,2,4-triazol-3-yl)-2,4-dimethylbenzyl)isobutyramide]
97.9	99.5	< 50	Cc1ccc(CNC(=O)C(C)(C)C)c(C)c1-c1nn(-c2ccc(C#CC3CC3)cc2)c(=O)[nH]1 [Example-165, N-(3-(1-(4-(2-Cyclopropylethynyl)phenyl)-4,5-dihydro-5-oxo-1H-1,2,4-triazol-3-yl)-2,4-dimethylbenzyl)pivalamide]
99.7	100	< 50	CC(C)(C)C(=O)NCc1ccc(Cl)c(-n2nc(-c3ccc(C#CC4CC4)c(F)c3)[nH]c2=O)c1 [Example-166, N-(4-Chloro-3-(3-(4-(2-cyclopropylethynyl)-3-fluorophenyl)-4,5-dihydro-5-oxo-1,2,4-triazol-1-yl)benzyl)pivalamide]
99	98.4	< 50	CC(C)(C)C(=O)NCc1ccc(Cl)c(-c2nn(-c3ccc(C#CC4CC4)cc3)c(=O)[nH]2)c1 [Example-167, N-(4-Chloro-3-(1-(4-(2-cyclopropylethynyl)phenyl)-4,5-dihydro-5-oxo-1H-1,2,4-triazol-3-yl)benzyl)pivalamide]
100	98.9	< 50	CC(C)(C)C(=O)NCc1ccc(Cl)c(-n2nc(-c3ccc(C#CC4CC4)cc3F)[nH]c2=O)c1 [Example-168, N-(4-Chloro-3-(3-(4-(2-cyclopropylethynyl)-2-fluorophenyl)-4,5-dihydro-5-oxo-1,2,4-triazol-1-yl)benzyl)pivalamide]
95.5	99.2	> 100	Cc1ccc(CNC(=O)C(C)(C)CF)c(C)c1-c1nn(-c2ccc(C#CC3CC3)cc2)c(=O)[nH]1 [Example-169, N-(3-(1-(4-(2-Cyclopropylethynyl)phenyl)-4,5-dihydro-5-oxo-1H-1,2,4-triazol-3-yl)-2,4-dimethylbenzyl)-3-fluoro-2,2-dimethylpropanamide]
99.8	98.9	< 50	Cc1ccc(CNC(=O)C(C)C)c(C)c1-c1nn(-c2ccc(C#CC(C)(C)C)c(F)c2)c(=O)[nH]1 [Example-170, N-(3-(1-(3-Fluoro-4-(3,3-dimethylbut-1-ynyl)phenyl)-4,5-dihydro-5-oxo-1H-1,2,4-triazol-3-yl)-2,4-dimethylbenzyl)isobutyramide]
95.2	99.6	< 50	COc1cc(-c2nn(-c3c(Cl)cccc3Cl)c(=O)[nH]2)ccc1C#Cc1cc(Cl)ccc1Cl [Example-171, 2-(2,6-Dichlorophenyl)-5-(4-(2-(2,5-dichlorophenyl)ethynyl)-3-methoxyphenyl)-2H-1,2,4-triazol-3 (4H)-one]
91.9	99	> 100	Cc1cc(C)n(Cc2ccc(-c3nn(-c4cc(CNC(=O)C(C)(C)C)ccc4Cl)c(=O)[nH]3)cc2)n1 [Example-172, N-(4-Chloro-3-(4,5-dihydro-3-(4-((3,5-dimethyl-1H-pyrazol-1-yl)methyl)phenyl)-5-oxo-1,2,4-triazol-1-yl)benzyl)pivalamide]
96.8	99	< 50	CC(C)(C)C(=O)NCc1ccc(Cl)c(-c2nn(-c3ccc(C(F)(F)F)c(F)c3)c(=O)[nH]2)c1F [Example-173, N-(4-Chloro-2-fluoro-3-(1-(3-fluoro-4-(trifluoromethyl)phenyl)-4,5-dihydro-5-oxo-1H-1,2,4-triazol-3-yl)benzyl)pivalamide]
99.9	100	< 50	CC(C)(C)C(=O)NCc1ccc(Cl)c(-c2nn(-c3ccc(Cl)c(C(F)(F)F)c3)c(=O)[nH]2)c1F [Example-174, N-(4-Chloro-3-(1-(4-chloro-3-(trifluoromethyl)phenyl)-4,5-dihydro-5-oxo-1H-1,2,4-triazol-3-yl)-2-fluorobenzyl)pivalamide]
99.4	99.4	< 50	CC(C)(CF)C(=O)NCc1ccc(Cl)c(-c2nn(-c3ccc(C(F)(F)F)cc3)c(=O)[nH]2)c1 [Example-175, N-(4-Chloro-3-(1-(4-(trifluoromethyl)phenyl)-4,5-dihydro-5-oxo-1H-1,2,4-triazol-3-yl)benzyl)-3-fluoro-2,2-dimethylpropanamide]
45.8	89.5		COc1cc(-c2nn(-c3c(Cl)cccc3Cl)c(=O)[nH]2)ccc1NC(=O)c1ccc(C(F)(F)F)cc1 [Example-176, N-(4-(1-(2,6-Dichlorophenyl)-4,5-dihydro-5-oxo-1H-1,2,4-triazol-3-yl)-2-methoxyphenyl)-4-(trifluoromethyl)benzamide]
29.9	71.1		COc1cc(-c2nn(-c3c(Cl)cccc3Cl)c(=O)[nH]2)ccc1NC(=O)c1cc(F)cc(F)c1 [Example-177, N-(4-(1-(2,6-Dichlorophenyl)-4,5-dihydro-5-oxo-1H-1,2,4-triazol-3-yl)-2-methoxyphenyl)-3,5-difluorobenzamide]
42.7	91.5		COc1cc(-c2nn(-c3c(Cl)cccc3Cl)c(=O)[nH]2)ccc1C(=O)Nc1cc(C(F)(F)F)ccc1F [Example-178, 4-(1-(2,6-Dichlorophenyl)-4,5-dihydro-5-oxo-1H-1,2,4-triazol-3-yl)-N-(2-fluoro-5-(trifluoromethyl)phenyl)-2-methoxybenzamide]
